{
  "source": "patent US11033604B2",
  "about": "“Reagents and methods for treating bacterial infection” (priority 2018, dated 2021)",
  "key": {"SA": {"system": "SA", "test": "Crystal violet biofilm assay", "format": "cell-based, Staphylococcus aureus", "description": "(§1) Furthermore, these same inhibitors are active against EC, SE, and SM."}, "[1]": {"system": "Pseudomonas aeruginosa (PA)", "test": "Crystal violet biofilm assay", "format": "cell-based", "description": "as §1"}, "[2]": {"system": "Streptococcus mutans (SM)", "test": "Crystal violet biofilm assay", "format": "cell-based", "description": "as §1"}, "[3]": {"system": "Staphylococcus epidermidis (SE)", "test": "Crystal violet biofilm assay", "format": "cell-based", "description": "as §1"}, "Escherichia coli (EC)": {"system": "Escherichia coli (EC)", "test": "Crystal violet biofilm assay", "format": "cell-based", "description": "as §1"}, "[4]": {"system": "P. aeruginosa PAO1 pFap biofilms", "test": "In situ ThT assay of Fap amyloid in P. aeruginosa biofilms", "format": "cell-based", "conditions": "LB medium, 37° C., 48 h", "description": "FIG. 15. Action of synthetic α-sheet peptides in the P. aeruginosa system. […] Error bars indicate standard deviation of the mean of at least three replicates. Significance values are p<0.05: *, p<0.01: **, p<0.001: ***.\nThe strain used in these experiments is a fap-overexpressing mutant of P. aeruginosa PAO1 WT called PAO1 pFap. The overexpression is generated by cloning the entire fap operon into a host expression vector, which is then transformed into PAO1 WT. […] For in situ assays, overnight cultures from a single colony of freshly transformed PAO1 pFap were used to inoculate 96 well plates in the presence of synthetic α-sheet peptides in LB medium. As a control, biofilms of the deletion strain PAO1 Δfap were grown under the same conditions. Plates were covered and incubated at 37° C. for 48 h. After incubation, planktonic cells and media were gently removed from the biofilms by pipetting. The biofilms were rinsed once with PBS prior to staining with 20 μM ThT. Stained biofilms were resuspended by pipetting and sonication, and the fluorescence of ThT was measured at 448/485 nm in a plate reader."}, "S. aureus MN8 biofilms": {"system": "S. aureus MN8 biofilms", "test": "ThT fluorescence assay of amyloid formation in S. aureus MN8 biofilm cultures", "format": "cell-based, Staphylococcus aureus", "conditions": "MN8 and SH1000 WT strains, particularly MN8; 24 h, 37° C.", "method": "We developed a novel protocol to identify amyloid fibril formation during biofilm development in two S. aureus strains—SH1000 WT, a rsbU^+ laboratory strain^27, and MN8, a clinical strain isolated from the human urogenital tract (Table 1). After 24 hours of batch growth in microtiter plates, biofilms were washed and incubated with Thioflavin T (ThT), and the resulting fluorescence signals served as a proxy for the extent of PSM fibril formation in the EM (FIG. 1A). Next, we utilized this assay to test α-sheet amyloid inhibitor designs and control peptides (sequences provided in Table 2) in batch biofilm cultures. The first inhibitor used is AP90 (Alternating Peptide #90, referred to as α1 previously^25,26). […] The AP401 and AP407 designs display similar spectral features by CD, except that AP401 has a positive signal in the random coil region (FIG. 7). AP401 has the same sequence as AP90 but with reversed chirality in the strands and turn, thus the D-amino acids give rise to an approximate mirror image CD spectrum relative to AP90. AP407 is a variant of AP90 with a disulfide bond. An unstructured random coil peptide (RC) and a β-hairpin (β) are used as structural controls.\nDesigned and control peptides were added to the growth medium prior to inoculation, and biofilms were allowed to grow for 24 hours at 37° C. Planktonic cells were removed and the remaining biofilms were assayed for amyloid content using ThT. […] The disulfide-linked peptide design, AP407, reduced the amyloid fibril formation by 46% and 56% in the MN8 and SH1000 WT strains, respectively. In contrast, the random coil and β-sheet control peptides were ineffective.\nOvernight cultures of S. aureus (see Table 1 for a list of strains used in this study) were spun down and re-suspended in fresh Luria-Bertani (LB) media to an optical density of 0.1 (600 nm). These cultures were then mixed with reconstituted peptide (or water, in the case of controls) and aliquoted in quadruplicate into wells of a clear 48-well plate (Corning, TC-treated polystyrene). The final concentration of peptide in each well was 80 μM, unless otherwise noted. Plates were covered and biofilms were grown at 37° C. for 24 hours with gentle rocking. At this time, medium and planktonic cells were removed from wells using a vacuum and the remaining adherent biofilms were rinsed once with PBS (BupH™, Thermo Scientific). Thioflavin T (ThT), an established fluorescent label for amyloid fibrils^40, was then added to each well at a concentration of 22 μM and biofilms were incubated statically for 4 hours at room temperature. The solution was then removed from the wells and PBS was added with vigorous pipetting to detach biofilms from the plate surface. Plates were shaken at high speed for 1 minute on a plate shaker to detach any remaining biofilm material and homogenize the samples. The detached biofilm suspensions were transferred to a 96-well black-walled plate (Corning, TC-treated polystyrene) and ThT fluorescence was read at 438/495 nm on a Perkin-Elmer Enspire™ plate reader. Fluorescence measurements were corrected by subtracting the background intensity of identical samples without ThT. For calculation of live:dead cell ratios, biofilm suspensions were prepared as described above and cells were stained with a 1:1 mixture of Syto9 and propidium iodide (LIVE/DEAD BacLight™ Bacterial Viability Kit, Thermo Scientific). After 15 minutes of incubation at room temperature, fluorescence ratios of the two dyes were determined using a Perkin-Elmer Enspire™ plate reader."}, "synthetic PSMα1": {"system": "synthetic PSMα1", "test": "PSMα1 fibrillization assay with added inhibitors (ThT)", "format": "biochemical, Staphylococcus aureus", "method": "FIG. 5. Aggregation of synthetic PSMα1 is inhibited by designed α-sheet peptides. (A) Synthetic PSMα1 peptide (30 μM, <1% DMSO, pH 5.5) was allowed to aggregate alone and in the presence of AP90 (1:4 molar ratio), RC (1:4 molar ratio), or AP407 (1:3 molar ratio). Two different solvent conditions were used (water+<1% DMSO; LB medium+<1% DMSO) and aggregation was monitored by ThT fluorescence. Inhibition values for each peptide are reported as a percentage of the peptide-free control samples (0% inhibition). (B) ThT fluorescence curves monitored the aggregation kinetics of PSMα1 under two different solvent conditions (water+<1% DMSO, black circles; LB medium+<1% DMSO, white circles). Fluorescence values in (B) are averages of 3-6 samples, with error bars to represent the standard deviation of the mean.\nDesigned α-sheet peptides inhibit amyloid formation through selective binding After establishing the structural transitions required to form amyloid in PSMα1, we examined the effect of the designed α-sheet peptides on the aggregation of PSMα1 in vitro. The designed peptide inhibitors were co-incubated with freshly prepared samples of synthetic PSMα1 (30 μM) and aggregation was monitored by ThT, as described above. To ensure sample homogeneity and removal of any amyloid “seeds” prior to aggregation, the synthetic PSMα1 peptide was treated with DMSO and then diluted into filtered water. […]"}},
  "note": "Non-standard residues stand in square brackets, D forms with d. No end group written: not given here.",
  "data": [
    {"substance": "RGNwNeSkMNEYSGWmLmLtMGR (RGN[dW]N[dE]S[dK]MNEYSGW[dM]L[dM]L[dT]MGR) [AP5]", "values": [
      {"measurement": "Biofilm inhibition (crystal violet, FIG. 10)", "setting": "SA", "result": "inhibition"},
      {"measurement": "Biofilm inhibition (crystal violet, FIG. 10)", "setting": "[1]", "result": "inhibition"},
      {"measurement": "Activity against biofilm-forming bacteria (crystal violet)", "setting": "[2]", "result": "active"},
      {"measurement": "Activity against biofilm-forming bacteria (crystal violet)", "setting": "[3]", "result": "active"},
      {"measurement": "Activity against biofilm-forming bacteria (crystal violet)", "setting": "Escherichia coli (EC)", "result": "active"},
      {"measurement": "Amyloid formation in biofilms (ThT)", "setting": "[4]", "result": "significantly inhibit amyloid formation"}
    ]},
    {"substance": "rGeMnLsWmneysGwTmNlKmGr (Ac-[dR]G[dE]M[dN]L[dS]W[dM][dN][dE][dY][dS]G[dW]T[dM]N[dL]K[dM]G[dR]-NH2; SMILES CSCC[C@H](NC(=O)[C@@H](CCC(=O)O)NC(=O)CNC(=O)[C@@H](CCCNC(=N)N)NC(C)=O)C(=O)N[C@H](CC(N)=O)C(=O)N[C@@H](CC(C)C)C(=O)N[C@H](CO)C(=O)N[C@@H](Cc1c[nH]c2ccccc12)C(=O)N[C@H](CCSC)C(=O)N[C@H](CC(N)=O)C(=O)N[C@H](CCC(=O)O)C(=O)N[C@H](Cc1ccc(O)cc1)C(=O)N[C@H](CO)C(=O)NCC(=O)N[C@H](Cc1c[nH]c2ccccc12)C(=O)N[C@H](C(=O)N[C@H](CCSC)C(=O)N[C@@H](CC(N)=O)C(=O)N[C@H](CC(C)C)C(=O)N[C@@H](CCCCN)C(=O)N[C@H](CCSC)C(=O)NCC(=O)N[C@H](CCCNC(=N)N)C(N)=O)[C@@H](C)O) [AP401]", "values": [
      {"measurement": "Effect on amyloid fibril formation in S. aureus biofilms (ThT fluorescence, FIG. 1B)", "setting": "S. aureus MN8 biofilms", "result": "significant reduction in amyloid fibril formation"}
    ]},
    {"substance": "KLKpLLTSENTL (KLK[dP]LLTSENTL) [RC, unstructured random coil peptide used as structural control]", "values": [
      {"measurement": "Inhibition of PSMα1 fibril formation", "setting": "synthetic PSMα1; 30 μM PSMα1, LB medium + <1% DMSO, 1:4 molar ratio", "result": "did not significantly influence amyloid formation"},
      {"measurement": "Inhibition of PSMα1 amyloid formation", "setting": "synthetic PSMα1; 30 μM PSMα1, water + <1% DMSO, 1:4 molar ratio (excess peptide)", "result": "little effect"},
      {"measurement": "Effect on amyloid fibril formation in S. aureus biofilms (ThT fluorescence, FIG. 1B)", "setting": "S. aureus MN8 biofilms", "result": "ineffective"}
    ]},
    {"substance": "SWTWEpNKWTWK (H-SWTWE[dP]NKWTWK-NH2; SMILES C[C@@H](O)[C@H](NC(=O)[C@H](Cc1c[nH]c2ccccc12)NC(=O)[C@H](CCCCN)NC(=O)[C@H](CC(N)=O)NC(=O)[C@H]1CCCN1C(=O)[C@H](CCC(=O)O)NC(=O)[C@H](Cc1c[nH]c2ccccc12)NC(=O)[C@@H](NC(=O)[C@H](Cc1c[nH]c2ccccc12)NC(=O)[C@@H](N)CO)[C@@H](C)O)C(=O)N[C@@H](Cc1c[nH]c2ccccc12)C(=O)N[C@@H](CCCCN)C(N)=O) [β, β-hairpin structural control peptide, reference compound]", "values": [
      {"measurement": "Effect on amyloid fibril formation in S. aureus biofilms (ThT fluorescence, FIG. 1B)", "setting": "S. aureus MN8 biofilms", "result": "ineffective"}
    ]}
  ]
}
